Measurements from patent US20200046703A1, “COMPOSITIONS AND METHODS FOR TREATMENT OF THE SIDE-EFFECTS ASSOCIATED WITH ADMINISTRATION OF THERAPEUTIC AGENTS” (ASYMMETRIC THERAPEUTICS, LLC, priority 2018, published 2020).

Experiments:
Assay type in all cases: cell-based, human
confluent HPEK cells = assay: Confluent HPEK cell viability with/without 5-FU; details: 0.3 mM, 120 hours
Procedure: Oxypurinol and allopurinol concentrations of 0.3 mM, 1.0 mM, and 3.0 mM, which are ten times higher than those used in the first set of experiments, were tested. An adenine concentration of 0.3 mM, which was the higher concentration used in the first set of experiments, was tested. The relative viability of the cells was determined after 120 hours.

proliferating HGEP cells = assay: Proliferating HGEP cell viability with/without 5-FU; details: with 5-FU 10 μM, 120 hours
Procedure: (§1) In one set of experiments, the results of which are shown in Table 1, proliferating HGEP cells, commonly used to assess oral mucosal toxicity, were exposed to the clinically-relevant dose of 10 μM of 5-FU and different concentrations of oxypurinol, either alone or with different concentrations of adenine or uracil, using standard tissue culture methods and incubated at 37° C. Oxypurinol concentrations of 0.03 mM, 0.1 mM, and 0.3 mM were tested. Adenine and uracil concentrations of 0.1 mM and 0.3 mM were tested. The relative viability of the cells was determined after 120 hours.

proliferating HPEK cells = assay: Proliferating HPEK cell viability with/without 5-FU; details: with 5-FU 10 μM, 120 hours
Procedure: as §1, with “In another” for “In one”, “Table 2,” for “Table 1,”, “proliferating HPEK” for “proliferating HGEP”, “assess skin tissue” for “assess oral mucosal”

## Nc1ncnc2nc[nH]c12 [Adenine, adenine, reference compound]
Confluent HPEK cells; no 5-FU
  relative cell viability (AVG): 1.3784
Confluent HPEK cells; with 5-FU 10 μM
  relative cell viability (AVG): 0.7456
Proliferating HGEP cells; 0.1 mM
  relative cell viability (AVG): 0.7549
Proliferating HGEP cells; 0.3 mM
  relative cell viability (AVG): 0.6389
Proliferating HPEK cells; 0.1 mM
  relative cell viability (AVG): 0.6214
Proliferating HPEK cells; 0.3 mM
  relative cell viability (AVG): 0.5985

## O=c1cc[nH]c(=O)[nH]1 [Uracil, uracil, reference compound]
Confluent HPEK cells; no 5-FU
  relative cell viability (AVG): 1.3781
Confluent HPEK cells; with 5-FU 10 μM
  relative cell viability (AVG): 0.6482
Proliferating HGEP cells; 0.1 mM
  relative cell viability (AVG): 0.6060
Proliferating HGEP cells; 0.3 mM
  relative cell viability (AVG): 0.5182
Proliferating HPEK cells; 0.1 mM
  relative cell viability (AVG): 0.6479
Proliferating HPEK cells; 0.3 mM
  relative cell viability (AVG): 0.6350
